# Experimental data from US7291594B2 (Sanwa Kagaku Kenkyusho Co., Ltd., priority 2002, dated 2007).
# Where no end group is shown, it is not given here.
# Columns and labels:
# trypsin = molecular target: T1, trypsin (Sus scrofa, UniProt P00761); experiment: Resistance to trypsin (residual cAMP activity); assay type: in vitro ADME
# T1 construct: purchased Promega V5113
# Experimental: Then, 5 μl of 500 μg/ml trypsin (Promega Cat. No. V5113) was added to 100 μl of the solution, and the mixture was incubated at 37° C. for 1 hour. The reaction was terminated by adding 1200 μl of 71.5% (final 65%) ethanol, and the reaction solution was centrifuged at 15,000 rpm at 4° C. for 5 minutes to recover a supernatant which was then evaporated into dryness. The dried product was dissolved in distilled water and measured for cAMP activity by the method in Test Example 1, to determine the residual activity (%).
# dipeptidyl peptidase IV = dipeptidyl peptidase IV (Homo sapiens, UniProt P27487); experiment: Resistance to dipeptidyl peptidase IV (residual cAMP activity); assay type: in vitro ADME
# Experimental: Thereafter, the sample was extracted with a 2-fold excess volume of ethanol, centrifuged and evaporated into dryness by an evaporator. The resulting dried product was dissolved in distilled water containing 1% BSA, and its cyclic AMP production activity was measured according to Test Example 1, to calculate the residual activity (%).
# mice [1] = experiment: OGTT in mice after nasal administration, with or without charge-regulated fat emulsion; assay type: in vivo, mouse; parameters: unit not given here
# Experimental: The charge-regulated fat emulsion used was prepared according to JP-A 8-27018; that is, a charge-regulated fat emulsion at a final concentration of 8% was obtained by using 2% (w/w) phosphatidyl glycerol (sodium salt), 8% (w/w) neutral oil and 90% (w/w) water.
# 50 μl of 8% charge-regulated fat emulsion was mixed with 3.56 μl of 1 mM 8S-GLP-1+5R solution and 146.4 μl distilled water to give 2% charge-regulated fat emulsion solution containing 8S-GLP-1+5R at a final concentration of 0.0178 mM.
# (§1) Mice were anesthetized lightly with ether. […] The GLP-1 derivative solution was inhaled by breathing through the nose into the mouse.
# The blood glucose level was determined by collecting several μl blood from a cut in the tail just before the test and 10, 20 and 30 minutes after glucose administration, and measuring glucose with a blood-glucose-level measuring instrument (Glutest Ace, manufactured by Sanwa Kagaku Kenkyusho Co., Ltd.).
# (§2) The blood insulin level was determined by collecting 75 μl blood from an orbital venous plexus with a heparin-treated glass capillary 10 minutes after administration of glucose, then centrifuging the blood and measuring plasma insulin by EIA (Levis Mouse Insulin Kit, manufactured by Shibayagi Co., Ltd.).
# mouse Langerhans islet = experiment: Insulin secretion stimulating activity using mouse Langerhans islet; assay type: cell-based; conditions: 16.7 mM glucose
# mice [2] = experiment: Oral glucose tolerance test (OGTT) in mice after nasal administration of GLP-1 derivative; assay type: in vivo, mouse; parameters: Blood insulin level (5 minutes after glucose administration): unit not given here; conditions: for Blood glucose level (area under blood concentration-time curve (AUC0-20 min)) / Blood insulin level (5 minutes after glucose administration): average ± standard error
# Experimental: That is, the GLP-1 derivative was administered via the nose into mice, and evaluated in an oral glucose tolerance test (OGTT) where a change in blood glucose level in the mice after tolerated with glucose was measured.
# At the time of the test, the solution was diluted to a predetermined concentration with physiological saline.
# as §1
# The blood glucose level was determined by collecting several μl blood from a cut in the tail just before the test and 5, 10 and 20 minutes after glucose administration, and measuring the blood with a small blood-glucose-level measuring instrument (Glutest Ace, manufactured by Sanwa Kagaku Kenkyusho Co., Ltd.).
# as §2, with “5” for “10”
# mice [3] = experiment: Blood glucose lowering activity in mice after subcutaneous administration and intravenous glucose; assay type: in vivo, mouse; conditions: for Blood sugar level 20 minutes after tolerance with glucose: 0.5 g/kg glucose i.v., mouse
# human GLP-1 receptor = molecular target: T2, human GLP-1 receptor (Homo sapiens, UniProt P43220); experiment: Cyclic AMP-producing activity in human GLP-1 receptor-expressing CHO-K1 cells; assay type: cell-based
# T2 construct: expressed in transfected cells; host or cells: CHO-K1 (Chinese hamster ovary)
# T2 sequence (P43220 24-463): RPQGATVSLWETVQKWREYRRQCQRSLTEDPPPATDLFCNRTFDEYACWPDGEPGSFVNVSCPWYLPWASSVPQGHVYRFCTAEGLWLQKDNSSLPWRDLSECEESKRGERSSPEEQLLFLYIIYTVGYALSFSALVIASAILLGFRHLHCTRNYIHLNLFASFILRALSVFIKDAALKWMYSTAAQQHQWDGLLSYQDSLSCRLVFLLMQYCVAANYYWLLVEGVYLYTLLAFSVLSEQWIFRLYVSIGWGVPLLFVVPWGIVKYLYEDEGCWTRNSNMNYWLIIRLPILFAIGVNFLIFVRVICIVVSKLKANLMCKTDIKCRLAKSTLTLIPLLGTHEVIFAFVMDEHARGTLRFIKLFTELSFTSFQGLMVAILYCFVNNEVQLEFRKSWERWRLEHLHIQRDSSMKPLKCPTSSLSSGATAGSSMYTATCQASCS
# Experimental: 10 μl of 5 N hydrochloric acid was added to terminate the incubation.
# T1 sequence (P00761 9-231): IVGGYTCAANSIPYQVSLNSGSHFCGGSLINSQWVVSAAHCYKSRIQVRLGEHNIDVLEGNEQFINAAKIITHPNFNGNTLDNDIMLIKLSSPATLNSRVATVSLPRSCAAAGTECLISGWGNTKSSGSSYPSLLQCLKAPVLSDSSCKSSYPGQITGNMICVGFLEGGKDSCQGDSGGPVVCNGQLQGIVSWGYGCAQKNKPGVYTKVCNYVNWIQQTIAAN
# Sequence of dipeptidyl peptidase IV (P27487 whole entry, species assumed): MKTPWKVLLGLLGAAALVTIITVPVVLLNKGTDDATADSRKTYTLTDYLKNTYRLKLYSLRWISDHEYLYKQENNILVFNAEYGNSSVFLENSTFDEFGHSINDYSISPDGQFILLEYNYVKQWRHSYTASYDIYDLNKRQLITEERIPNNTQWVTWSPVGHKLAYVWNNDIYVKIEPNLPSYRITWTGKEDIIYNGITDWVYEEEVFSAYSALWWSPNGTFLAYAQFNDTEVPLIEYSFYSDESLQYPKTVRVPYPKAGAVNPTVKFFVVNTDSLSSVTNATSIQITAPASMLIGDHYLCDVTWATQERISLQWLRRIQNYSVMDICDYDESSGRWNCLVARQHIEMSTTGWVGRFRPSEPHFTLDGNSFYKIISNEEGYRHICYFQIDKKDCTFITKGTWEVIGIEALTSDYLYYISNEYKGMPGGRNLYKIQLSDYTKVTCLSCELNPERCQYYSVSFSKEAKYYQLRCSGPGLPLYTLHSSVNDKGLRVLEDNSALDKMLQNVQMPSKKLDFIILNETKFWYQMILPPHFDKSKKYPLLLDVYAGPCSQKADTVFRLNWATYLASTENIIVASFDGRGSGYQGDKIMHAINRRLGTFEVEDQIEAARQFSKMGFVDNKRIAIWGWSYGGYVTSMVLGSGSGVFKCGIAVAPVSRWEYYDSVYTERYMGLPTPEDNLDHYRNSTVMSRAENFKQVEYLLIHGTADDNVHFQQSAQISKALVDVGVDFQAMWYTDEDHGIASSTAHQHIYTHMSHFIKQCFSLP
compound,measurement,setting,value
"CC[C@H](C)[C@H](NC(=O)[C@H](Cc1ccccc1)NC(=O)[C@H](CCC(=O)O)NC(=O)[C@H](CCC(N)=O)NC(=O)[C@H](C)NC(=O)[C@H](C)NC(=O)[C@H](CCC(N)=O)NC(=O)CNC(=O)[C@H](CCC(=O)O)NC(=O)[C@H](CC(C)C)NC(=O)[C@H](Cc1ccc(O)cc1)NC(=O)[C@H](CO)NC(=O)[C@H](CO)NC(=O)[C@@H](NC(=O)[C@H](CC(=O)O)NC(=O)[C@H](CO)NC(=O)[C@@H](NC(=O)[C@H](Cc1ccccc1)NC(=O)[C@@H](NC(=O)CNC(=O)[C@H](CCC(=O)O)NC(=O)[C@H](C)NC(=O)[C@@H](N)Cc1c[nH]cn1)[C@@H](C)O)[C@@H](C)O)C(C)C)C(=O)N[C@@H](C)C(=O)N[C@@H](Cc1c[nH]c2ccccc12)C(=O)N[C@@H](CC(C)C)C(=O)N[C@H](C(=O)N[C@@H](CC(N)=O)C(=O)NCC(=O)N[C@@H](CCCNC(=N)N)C(N)=O)C(C)C [26Q34N-GLP-1, [Gln^26, Asn^34]-GLP-1 (7-35)-Arg-NH2]",Residual activity (%),"trypsin; Trypsin + (37° C., 1 hour, pH 7.8)",94.8%
same,Residual activity (%),trypsin; Trypsin − (not treated),100%
GLP-1 (7-36)—NH2 [reference compound],Residual activity (%),"dipeptidyl peptidase IV; DPP IV + (40 μU/μl, 37° C., 60 minutes)",25%
same,Residual activity (%),dipeptidyl peptidase IV; DPP IV −(not treated),100%
same,Blood insulin level (10 minutes after glucose administration),"mice [1]; 10.7 nmol/mouse, without charge-regulated fat emulsion",377 ± 41
same,Amount of insulin secreted,mouse Langerhans islet; assay concentration −8 log M,6.71 ng/islet/30 min
same,Amount of insulin secreted,mouse Langerhans islet; assay concentration −9 log M,5.11 ng/islet/30 min
same,Amount of insulin secreted,mouse Langerhans islet; assay concentration −10 log M,4.11 ng/islet/30 min
same,Blood glucose level (area under blood concentration-time curve (AUC0-20 min)),mice [2]; 1.07 nmol/mouse,697 ± 94 mg·min/dL
same,Blood insulin level (5 minutes after glucose administration),mice [2]; 1.07 nmol/mouse,662 ± 91
same,Blood glucose level (area under blood concentration-time curve (AUC0-20 min)),mice [2]; 10.7 nmol/mouse,399 ± 35 mg·min/dL
same,Blood insulin level (5 minutes after glucose administration),mice [2]; 10.7 nmol/mouse,743 ± 147
same,Blood sugar level 20 minutes after tolerance with glucose,mice [3]; 5 μg/kg,119 mg/dL
same,Blood sugar level 20 minutes after tolerance with glucose,mice [3]; 10 μg/kg,103 mg/dL
same,Blood sugar level 20 minutes after tolerance with glucose,mice [3]; 20 μg/kg,75 mg/dL
"[Ser^8, Gln^26, Asn^34]-GLP-1 (7-35)-Arg (HSEGTFTSDVSSYLEGQAAQEFIAWLVNGR; ends and bridges not checked) [8S26Q34N-GLP-1]",insulin secretion stimulating activity compared with naturally occurring GLP-1 (in words),mouse Langerhans islet; 30 minutes,stronger insulin secretion stimulating activity than that of the naturally occurring GLP-1
same,Amount of insulin secreted,mouse Langerhans islet; assay concentration −8 log M,9.85 ng/islet/30 min
same,Amount of insulin secreted,mouse Langerhans islet; assay concentration −9 log M,6.61 ng/islet/30 min
same,Amount of insulin secreted,mouse Langerhans islet; assay concentration −10 log M,3.64 ng/islet/30 min
same,in vitro activity of producing cyclic AMP (in words),human GLP-1 receptor,the activity was maintained
same,Amount of cAMP produced,human GLP-1 receptor; concentration −8 log M,79.2 pmol/10^5 cell/30 min
same,Amount of cAMP produced,human GLP-1 receptor; concentration −9 log M,76.1 pmol/10^5 cell/30 min
same,Amount of cAMP produced,human GLP-1 receptor; concentration −10 log M,24.2 pmol/10^5 cell/30 min
same,Amount of cAMP produced,human GLP-1 receptor; concentration −11 log M,4.7 pmol/10^5 cell/30 min
same,Amount of cAMP produced,human GLP-1 receptor; concentration −12 log M,0.6 pmol/10^5 cell/30 min
same,blood glucose lowering activity in mice (in words),mice [3],concentration-dependent depression in blood glucose level
same,Blood sugar level 20 minutes after tolerance with glucose,mice [3]; 5 μg/kg,110 mg/dL
same,Blood sugar level 20 minutes after tolerance with glucose,mice [3]; 10 μg/kg,95 mg/dL
same,Blood sugar level 20 minutes after tolerance with glucose,mice [3]; 20 μg/kg,21 mg/dL
[Ser^8]-GLP-1 (7-35)-Arg-Arg-Arg-Arg-Arg-Arg-Arg-Arg-Arg-NH2 (HSEGTFTSDVSSYLEGQAAKEFIAWLVKGRRRRRRRRR-NH2) [8S-GLP-1 + 8R],Blood glucose level (area under blood concentration-time curve (AUC0-20 min)),mice [2]; 1.07 nmol/mouse,487 ± 32 mg·min/dL
same,Blood insulin level (5 minutes after glucose administration),mice [2]; 1.07 nmol/mouse,1882 ± 402
[Ser^8]-GLP-1 (7-35)-Arg-Arg-Arg-Arg-Arg-Arg-Arg-NH2 (HSEGTFTSDVSSYLEGQAAKEFIAWLVKGRRRRRRR-NH2) [8S-GLP-1 + 6R],Blood glucose level (area under blood concentration-time curve (AUC0-20 min)),mice [2]; 1.07 nmol/mouse,559 ± 27 mg·min/dL
same,Blood insulin level (5 minutes after glucose administration),mice [2]; 1.07 nmol/mouse,1633 ± 449
[Ser^8]-GLP-1 (7-35)-Arg-Arg-Arg-Arg-Arg-Arg-NH2 (HSEGTFTSDVSSYLEGQAAKEFIAWLVKGRRRRRR-NH2) [8S-GLP-1 + 5R],Blood insulin level (10 minutes after glucose administration),"mice [1]; 0.357 nmol/mouse, used in combination with 2% charge-regulated fat emulsion",560 ± 81
same,Blood insulin level (10 minutes after glucose administration),"mice [1]; 0.357 nmol/mouse, without charge-regulated fat emulsion",506 ± 34
same,Blood glucose level (area under blood concentration-time curve (AUC0-20 min)),mice [2]; 1.07 nmol/mouse,483 ± 26 mg·min/dL
same,Blood insulin level (5 minutes after glucose administration),mice [2]; 1.07 nmol/mouse,1504 ± 250
[Ser^8]-GLP-1 (7-35)-Arg-Arg-Arg-Arg-Arg-NH2 (HSEGTFTSDVSSYLEGQAAKEFIAWLVKGRRRRR-NH2) [8S-GLP-1 + 4R],blood glucose depressing action (in words),mice [2],strongest blood glucose depressing action
same,Blood glucose level (area under blood concentration-time curve (AUC0-20 min)),mice [2]; 1.07 nmol/mouse,388 ± 54 mg·min/dL
same,Blood insulin level (5 minutes after glucose administration),mice [2]; 1.07 nmol/mouse,1713 ± 430
[Ser^8]-GLP-1 (7-35)-Arg-Arg-Arg-Arg-NH2 (HSEGTFTSDVSSYLEGQAAKEFIAWLVKGRRRR-NH2) [8S-GLP-1 + 3R],Blood glucose level (area under blood concentration-time curve (AUC0-20 min)),mice [2]; 1.07 nmol/mouse,509 ± 92 mg·min/dL
same,Blood insulin level (5 minutes after glucose administration),mice [2]; 1.07 nmol/mouse,1359 ± 318
[Ser^8]-GLP-1 (7-35)-Arg-Arg-Arg-NH2 (HSEGTFTSDVSSYLEGQAAKEFIAWLVKGRRR-NH2) [8S-GLP-1 + 2R],Blood glucose level (area under blood concentration-time curve (AUC0-20 min)),mice [2]; 1.07 nmol/mouse,535 ± 58 mg·min/dL
same,Blood insulin level (5 minutes after glucose administration),mice [2]; 1.07 nmol/mouse,957 ± 86
[Ser^8]-GLP-1 (7-35)-Arg-Lys-Lys-NH2 (HSEGTFTSDVSSYLEGQAAKEFIAWLVKGRKK-NH2) [8S-GLP-1 + 2K],Blood glucose level (area under blood concentration-time curve (AUC0-20 min)),mice [2]; 1.07 nmol/mouse,598 ± 63 mg·min/dL
same,Blood insulin level (5 minutes after glucose administration),mice [2]; 1.07 nmol/mouse,862 ± 150
"[Ser^8]-GLP-1 (7-35)-Lys-Arg-NH2 (HSEGTFTSDVSSYLEGQAAKEFIAWLVKGKR-NH2) [8S, des36R-GLP-1 + 1KR]",Blood glucose level (area under blood concentration-time curve (AUC0-20 min)),mice [2]; 1.07 nmol/mouse,611 ± 51 mg·min/dL
same,Blood insulin level (5 minutes after glucose administration),mice [2]; 1.07 nmol/mouse,1349 ± 244
"[Ser^8]-GLP-1 (7-35)-Lys-Lys-Arg-NH2 (HSEGTFTSDVSSYLEGQAAKEFIAWLVKGKKR-NH2) [8S, des36R-GLP-1 + 2KR]",Blood glucose level (area under blood concentration-time curve (AUC0-20 min)),mice [2]; 1.07 nmol/mouse,564 ± 52 mg·min/dL
same,Blood insulin level (5 minutes after glucose administration),mice [2]; 1.07 nmol/mouse,1243 ± 309
"[Ser^8]-GLP-1 (7-35)-Lys-Lys-Lys-Arg-NH2 (HSEGTFTSDVSSYLEGQAAKEFIAWLVKGKKKR-NH2) [8S, des36R-GLP-1 + 3KR]",Blood glucose level (area under blood concentration-time curve (AUC0-20 min)),mice [2]; 1.07 nmol/mouse,557 ± 53 mg·min/dL
same,Blood insulin level (5 minutes after glucose administration),mice [2]; 1.07 nmol/mouse,1176 ± 233
"[Ser^8]-GLP-1 (7-35)-Lys-Lys-Lys-Lys-Lys-Arg-NH2 (HSEGTFTSDVSSYLEGQAAKEFIAWLVKGKKKKKR-NH2) [8S, des36R-GLP-1 + 5KR]",blood glucose depressing action (in words),mice [2],strongest blood glucose depressing action
same,Blood glucose level (area under blood concentration-time curve (AUC0-20 min)),mice [2]; 1.07 nmol/mouse,404 ± 71 mg·min/dL
same,Blood insulin level (5 minutes after glucose administration),mice [2]; 1.07 nmol/mouse,2229 ± 346
"[Ser^8]-GLP-1 (7-35)-Lys-Lys-Lys-Lys-Lys-Lys-Lys-Arg-NH2 (HSEGTFTSDVSSYLEGQAAKEFIAWLVKGKKKKKKKR-NH2) [8S, des36R-GLP-1 + 7KR]",Blood glucose level (area under blood concentration-time curve (AUC0-20 min)),mice [2]; 1.07 nmol/mouse,457 ± 69 mg·min/dL
same,Blood insulin level (5 minutes after glucose administration),mice [2]; 1.07 nmol/mouse,1604 ± 344
"[Ser^8]-GLP-1 (7-35)-Lys-Lys-Lys-Lys-Lys-Lys-Lys-Lys-Lys-Lys-Arg-NH2 (HSEGTFTSDVSSYLEGQAAKEFIAWLVKGKKKKKKKKKKR-NH2) [8S, des36R-GLP-1 + 10KR]",Blood glucose level (area under blood concentration-time curve (AUC0-20 min)),mice [2]; 1.07 nmol/mouse,492 ± 106 mg·min/dL
same,Blood insulin level (5 minutes after glucose administration),mice [2]; 1.07 nmol/mouse,2379 ± 520
